Data on 17 compounds can be found in patent US20040024024A1, “Aromatic sulfone hydroxamates and their use as protease inhibitors” (priority 2001, published 2004).

What all share (test): In vitro MMP inhibition, Ki determination (fluorogenic substrate II)
Format in all cases: biochemical

The target of experiment [1] is T1, Human recombinant MMP-1 (Homo sapiens, UniProt P03956).
T1 construct: made in house; host or cells: MMP-1-transfected HT-1080 cells (spent media)
T1 sequence (P03956 100-469): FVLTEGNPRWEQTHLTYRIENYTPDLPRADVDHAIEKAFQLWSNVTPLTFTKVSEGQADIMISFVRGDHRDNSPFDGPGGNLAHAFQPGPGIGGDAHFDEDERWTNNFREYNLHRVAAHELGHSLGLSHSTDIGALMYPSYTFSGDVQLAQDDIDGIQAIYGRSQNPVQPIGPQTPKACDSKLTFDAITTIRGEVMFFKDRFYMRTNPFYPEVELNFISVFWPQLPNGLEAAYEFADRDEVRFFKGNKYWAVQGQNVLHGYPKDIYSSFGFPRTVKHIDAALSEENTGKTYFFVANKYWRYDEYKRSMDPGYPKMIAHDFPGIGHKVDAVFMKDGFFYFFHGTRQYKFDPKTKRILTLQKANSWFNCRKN
Put shortly:
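Activated human recombinant MMP-1 (APMA- or trypsin-activated; proenzyme from transfected HT-1080 cells) incubated 1 hr at room temperature with 4 μM MCA/Dpa fluorogenic substrate II at or below Km in Tris buffer pH 7.5 with CaCl2. Fluorescence ex 330/em 420 nm; Ki from Morrison-equation non-linear regression, uncorrected for substrate.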

In experiment [2] the target is T2, Human recombinant MMP-9 (Homo sapiens, UniProt P14780).
T2 construct: made in house; host or cells: MMP-9-transfected HT1080 cells (spent media)
Put shortly:
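MMP-9 proenzyme purified from transfected HT1080 cell media, activated with APMA, trypsin or recombinant MMP-3; hydroxamates diluted in pH 7.5 Tris/NaCl/CaCl2 buffer. Cleavage of 4 μM MCA/Dpa substrate II followed by fluorescence (ex 330/em 420 nm), 1 h at room temperature. Ki from Morrison-equation fit, substrate at/below Km, uncorrected.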

Experiment [3] deals with T3, Human recombinant MMP-13 (Homo sapiens, UniProt P45452).
T3 construct: made in house; host or cells: baculovirus / insect cells
In short, it runs like this:
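Baculovirus-expressed proenzyme, APMA-activated; 4 μM fluorogenic MCA/Dpa peptide substrate (II), at or below Km, in Tris buffer pH 7.5 with CaCl2, 1 hr at room temperature. Fluorescence at 330/420 nm; Ki from non-linear regression with Morrison's equation, not corrected for substrate.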

The mark [4] stands for this setting: substrate (II) 4 μM, 1 hr room temperature, apparent Ki, values in parenthesis.

Molecules are shown by their SMILES. Counter-ions that a name gives are not always drawn. Some results are limits rather than exact numbers.

T2 sequence (P14780 107-707 limits assumed): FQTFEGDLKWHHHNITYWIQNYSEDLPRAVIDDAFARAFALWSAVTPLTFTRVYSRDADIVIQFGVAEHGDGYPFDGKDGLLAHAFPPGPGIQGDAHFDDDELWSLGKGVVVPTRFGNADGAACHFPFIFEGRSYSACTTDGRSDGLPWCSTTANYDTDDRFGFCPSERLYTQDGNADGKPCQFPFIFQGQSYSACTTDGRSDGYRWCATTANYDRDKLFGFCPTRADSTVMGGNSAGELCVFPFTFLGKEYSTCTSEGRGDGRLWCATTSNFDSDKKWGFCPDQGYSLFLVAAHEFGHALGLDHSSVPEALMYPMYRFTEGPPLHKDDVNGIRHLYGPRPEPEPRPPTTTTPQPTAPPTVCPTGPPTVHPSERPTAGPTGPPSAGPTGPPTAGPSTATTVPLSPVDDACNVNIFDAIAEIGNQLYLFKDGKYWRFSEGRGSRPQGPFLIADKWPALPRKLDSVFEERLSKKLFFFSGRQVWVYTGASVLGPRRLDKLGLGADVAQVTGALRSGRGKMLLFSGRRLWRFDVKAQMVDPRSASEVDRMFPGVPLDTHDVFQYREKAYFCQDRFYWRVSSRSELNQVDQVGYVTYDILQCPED

Turning to `CCN1CCC(C(=O)NO)(S(=O)(=O)c2ccc(OCCCc3cccc(-c4ccccc4)c3)cc2)CC1` [Example 46], the Ki was > 10000 nM in experiment [1] (setting [4]), 418 nM in experiment [2] (setting [4]) and 2.29 nM in experiment [3] (setting [4]).

For `O=C(NO)C1(S(=O)(=O)c2ccc(OCCc3cccc(-c4ccc(F)cc4)c3)cc2)CCOCC1` [Example 123], the Ki is > 10000 nM in experiment [1] (value in parenthesis), 2130 nM in experiment [2] (value in parenthesis) and 7.35 nM in experiment [3] (value in parenthesis).

`O=C(NO)C1(S(=O)(=O)c2ccc(OCCCc3cccc(-c4ccc5c(c4)OCCO5)c3)cc2)CCOCC1` [Example 627]: the Ki in experiment [1] (value in parentheses) was > 10000 nM; in experiment [2] (value in parentheses) it was 3150 nM; in experiment [3] (value in parentheses), 40.9 nM.

In the case of `O=C(CCCOc1ccc(S(=O)(=O)C2(C(=O)NO)CCOCC2)cc1)Nc1cccc(I)c1` [Example 570], the results for the Ki in experiment [1] (value in parentheses), in experiment [2] (value in parentheses) and in experiment [3] (value in parentheses) were 3060 nM, 6.15 nM and 0.142 nM, respectively.

`O=C(NO)C1(S(=O)(=O)c2ccc(OCCCc3cccc(-c4cc5ccccc5s4)c3)cc2)CCOCC1` [Example 633]: the Ki is > 10000 nM in experiment [1] (value in parentheses), 6780 nM in experiment [2] (value in parentheses) and 92.4 nM in experiment [3] (value in parentheses).

For the compound `O=C(NO)C1(S(=O)(=O)c2ccc(OCCCc3cncc(-c4ccc(F)cc4)c3)cc2)CCOCC1` [Example 523], the Ki worked out at 3210 nM in experiment [1] (value in parentheses), 1250 nM in experiment [2] (value in parentheses) and 0.234 nM in experiment [3] (value in parentheses).

With `O=C(NO)C1(S(=O)(=O)c2ccc(OCCCc3cccc(-c4ccc(F)cc4F)c3)cc2)CCOCC1` [Example 630], the Ki in experiment [1] (value in parentheses) was > 10000 nM; in experiment [2] (value in parentheses), 2280 nM; in experiment [3] (value in parentheses) it was 6.02 nM.

In the case of `O=C(NO)C1(S(=O)(=O)c2ccc(OCCc3cccc(-c4ccccc4F)c3)cc2)CCOCC1` [Example 115], the Ki is > 10000 nM in experiment [1] (value in parenthesis), 1980 nM in experiment [2] (value in parenthesis) and 2.24 nM in experiment [3] (value in parenthesis).

In the case of `O=C(NO)C1(S(=O)(=O)c2ccc(OCCOc3cccc(-c4ccccc4)c3)cc2)CCOCC1` [Example 157], the Ki in experiment [1] (value in parenthesis) is > 10000 nM; in experiment [2] (value in parenthesis) it was 1390 nM; in experiment [3] (value in parenthesis), 4.01 nM.

Regarding `O=C(NO)C1(S(=O)(=O)c2ccc(OCCCc3cccc(-c4ccoc4)c3)cc2)CCOCC1` [Example 637], the Ki in experiment [1] (value in parentheses) was > 10000 nM; in experiment [2] (value in parentheses), 881 nM; in experiment [3] (value in parentheses), 4.63 nM.

Turning to `COCCN1CCC(C(=O)NO)(S(=O)(=O)c2ccc(OCCCc3nnc(-c4ccccc4C(F)(F)F)o3)cc2)CC1` [Example 178], the Ki in experiment [1] (value in parenthesis) was > 10000 nM; in experiment [2] (value in parenthesis) it was 306 nM; in experiment [3] (value in parenthesis), 1.71 nM.

As for `COCCN1CCC(C(=O)NO)(S(=O)(=O)c2ccc(OCCCc3nc(-c4ccc(OC(F)(F)F)cc4)no3)cc2)CC1` [Example 42], the Ki in experiment [1] (setting [4]) was > 10000 nM; in experiment [2] (setting [4]), 662 nM; in experiment [3] (setting [4]), 0.486 nM.

Regarding `C=Cc1ccc(-c2cccc(CCCOc3ccc(S(=O)(=O)C4(C(=O)NO)CCOCC4)cc3)c2)cc1` [Example 635], the Ki was > 10000 nM in experiment [1] (value in parentheses), 4830 nM in experiment [2] (value in parentheses) and 26.2 nM in experiment [3] (value in parentheses).

With `O=C(NO)C1(S(=O)(=O)c2ccc(OCCCc3cccc(-c4ccc(F)cc4)c3)cc2)CCOCC1` [Example 39], the Ki in experiment [1] (setting [4]) was > 10000 nM; in experiment [2] (setting [4]) it was 2360 nM; in experiment [3] (setting [4]), 3.04 nM.

For the compound `O=C(NO)C1(S(=O)(=O)c2ccc(OCCCc3cccc(-c4cccc5ccccc45)c3)cc2)CCOCC1` [Example 638], the Ki in experiment [1] (value in parentheses) was > 10000 nM; in experiment [2] (value in parentheses) it was 8770 nM; in experiment [3] (value in parentheses) it was 68.1 nM.

Take `O=C(NO)C1(S(=O)(=O)c2ccc(OCCCc3cc(-c4ccc(OC(F)(F)F)cc4)cs3)cc2)CCOCC1` [Example 608]: the Ki in experiment [1] (value in parentheses) is > 10000 nM; in experiment [2] (value in parentheses), 1370 nM; in experiment [3] (value in parentheses) it was 9.34 nM.

Take `CCN1CCC(C(=O)NO)(S(=O)(=O)c2ccc(OCCCc3nc(-c4ccc(OC(F)(F)F)cc4)no3)cc2)CC1` [Example 41, 1-ethyl-N-hydroxy 4-{[4-(3-{3-[4-(trifluoromethoxy)phenyl]-1,2,4-oxadiazol-5-yl}propoxy)phenyl]sulfonyl}piperidine-4-carboxamide Hydrochloride]: the results for the Ki in experiment [1] (setting [4]), in experiment [2] (setting [4]) and in experiment [3] (setting [4]) were > 10000 nM, 1470 nM and 1.06 nM, respectively.
